Consider 1 substance from patent US20120321609A1, “METHOD OF TREATING PSYCHOLOGICAL DISORDERS” (priority 2011, published 2012).

In assay [1] the test system is mice. Briefly: Open field test (anxiety-related behaviour). Conditions: 5 min test; CRF 1.5 μg into medial prefrontal cortex, DOI 0.15 mg/kg i.p.; vs vehicle-vehicle or single treatment. In kind it is in vivo, mouse. On the procedure: Male CD-1 mice were obtained from Charles River Canada (St. Constant, Quebec) at 50-60 days of age, and were acclimatized to the laboratory for approximately 30 days before serving as experimental subjects. Mice were housed four per cage, until the time of surgery, after which they were housed individually. The vivarium was maintained on a 12-h light/dark cycle in a temperature (21° C.) controlled room with food and water freely available. Mice were anesthetized using isoflurane and stereotaxic surgery (David Kopf Instruments Model 940) was performed to install a cannulae into the medial prefrontal cortex. A Guide cannulae (Plastics One In), situated according to the mouse atlas of Franklin and Paxinos at Lateral=0.32 mm, D/V=2.25 mm, A/P=+2.68 mm. A dummy cannula, was inserted flush with guide. Approximately 1 week after behavioral testing mice were perfused with 4% paraformaldehyde. […]
In an initial test, mice were placed in a 45×45 cm open field, with an inner square of 21×24×24 cm., for a 5 min period, during which the time to enter the center area, and the total time spent in the center portion of the arena was recorded. […] Mice were individually placed in one of the enclosed arms of a plus-maze and the behavior of the animals was recorded over a 5 min period by a ceiling-mounted video camera. […]

Assay [2] relates to 5-HT2AR. The assay is described as follows: Biotinylation of cell surface FLAG-5-HT2AR in HEK 293 cells. Conditions: CRF 500 nM pretreatment 30 min. In kind it is cell-based, human. The procedure: HEK 293 cells transiently expressing wild-type and truncated FLAG-5-HT2AR and HA-CRFR1 were seeded into 100 mm dishes and pre-incubated for 30 minutes in HBSS. […] Cell surface receptors were labeled on ice with biotin (1 mg/ml) for 1 hour. Following labeling, cells were washed 3 times with 10 mM glycine and then 2 times with HBSS, lysed and equal amounts of total protein were incubated with neutravidin beads for 2 hours with rotation at 4° C. Beads were then washed 3 times with lysis buffer and one time with PBS. Proteins were eluted from beads by addition of 50 ul of SDS loading buffer. Samples were resolved by SDS-PAGE, transferred to nitrocellulose membrane and subsequently immunoblotted as described above with rabbit polyclonal FLAG antibody.
Sequence of 5-HT2AR (P28223 whole entry, the tested form may be a part): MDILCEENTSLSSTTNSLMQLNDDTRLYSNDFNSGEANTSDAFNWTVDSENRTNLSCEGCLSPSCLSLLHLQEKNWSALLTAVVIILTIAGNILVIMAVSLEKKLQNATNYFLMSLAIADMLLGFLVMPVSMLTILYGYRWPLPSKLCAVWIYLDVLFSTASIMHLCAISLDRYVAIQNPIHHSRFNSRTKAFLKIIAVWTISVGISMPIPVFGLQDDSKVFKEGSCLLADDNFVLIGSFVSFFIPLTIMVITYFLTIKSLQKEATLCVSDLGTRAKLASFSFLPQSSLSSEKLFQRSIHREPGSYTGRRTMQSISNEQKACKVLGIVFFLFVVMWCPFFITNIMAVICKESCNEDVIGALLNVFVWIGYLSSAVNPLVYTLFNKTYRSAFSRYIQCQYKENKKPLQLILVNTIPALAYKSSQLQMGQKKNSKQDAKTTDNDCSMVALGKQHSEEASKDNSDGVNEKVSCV

Assay [3] has as its target T1, 5-HT2AR (Homo sapiens, UniProt P28223).
T1 construct: expressed in transfected cells; host or cells: HEK 293
The assay is described as follows: 5-HT-stimulated inositol phosphate formation in HEK 293 cells co-expressing CRFR2 and 5-HT2AR. In kind it is cell-based. Conditions: CRF 500 nM pretreatment 30 min.

Another assay has as its target T2, 5-HT2CR (Homo sapiens, UniProt P28335).
T2 construct: expressed in transfected cells; host or cells: HEK 293
T2 sequence (P28335 33-458): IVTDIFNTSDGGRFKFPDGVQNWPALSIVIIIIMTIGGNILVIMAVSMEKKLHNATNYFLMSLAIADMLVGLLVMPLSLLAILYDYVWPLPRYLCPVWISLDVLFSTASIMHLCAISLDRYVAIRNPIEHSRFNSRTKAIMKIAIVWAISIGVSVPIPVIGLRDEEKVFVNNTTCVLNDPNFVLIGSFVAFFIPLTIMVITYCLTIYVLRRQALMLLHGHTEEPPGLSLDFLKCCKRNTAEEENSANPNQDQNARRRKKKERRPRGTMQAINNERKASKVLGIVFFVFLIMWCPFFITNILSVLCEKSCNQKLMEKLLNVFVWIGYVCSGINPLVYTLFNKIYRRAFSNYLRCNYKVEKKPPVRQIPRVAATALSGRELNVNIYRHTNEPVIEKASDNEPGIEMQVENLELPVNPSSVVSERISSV
The assay is described as follows: 5-HT-stimulated inositol phosphate formation in HEK 293 cells transfected with FLAG-5-HT2CR and HA-CRFR1. It counts as cell-based.

In assay [4] the test system is mice. The assay is described as follows: Elevated plus maze test (anxiety-related behaviour). It counts as in vivo, mouse. Conditions: DOI 0.15 mg/kg i.p. The procedure:
Male CD-1 mice were obtained from Charles River Canada (St. Constant, Quebec) at 50-60 days of age, and were acclimatized to the laboratory for approximately 30 days before serving as experimental subjects. Mice were housed four per cage, until the time of surgery, after which they were housed individually. The vivarium was maintained on a 12-h light/dark cycle in a temperature (21° C.) controlled room with food and water freely available. Mice were anesthetized using isoflurane and stereotaxic surgery (David Kopf Instruments Model 940) was performed to install a cannulae into the medial prefrontal cortex. A Guide cannulae (Plastics One In), situated according to the mouse atlas of Franklin and Paxinos at Lateral=0.32 mm, D/V=2.25 mm, A/P=+2.68 mm. A dummy cannula, was inserted flush with guide. Approximately 1 week after behavioral testing mice were perfused with 4% paraformaldehyde. Brains were subsequently sectioned at 14 microns and stained with Cresyl violet for probe placement verification. Only the data from mice with correct probe placements were used in the analysis of the behavioral tests.
Drug diffusion was permitted for 5 min, and then after a further 5 min period mice were injected intraperotineally with DOI (Sigma) at a dose of 0.15 mg/kg or saline. Behavioral testing was conducted 15 min after the DOI treatment. In a second experiment the procedure was identical to that of the preceding study, except that mice were pretreated i.p. with either vehicle or 0.25 mg/kg of M100907 in a volume of 0.3 ml immediately prior to the DOI treatment. As in the preceding study mice were then tested in the elevated plus maze test (n=6-8)/group. Once again, data were obtained from videotapes and the researcher was blind as to the treatments mice had received.
In an initial test, mice were placed in a 45×45 cm open field, with an inner square of 21×24×24 cm., for a 5 min period, during which the time to enter the center area, and the total time spent in the center portion of the arena was recorded. The plus maze test was then conducted 1 min after the open field assessment. Mice were individually placed in one of the enclosed arms of a plus-maze and the behavior of the animals was recorded over a 5 min period by a ceiling-mounted video camera. The amount of time spent in each of the arms, the number of arm entries (an arm entry was defined as all four of the paws being placed in an arm of the plus-maze). The elevated plus-maze had two arms enclosed by 21 cm high walls; whereas the remaining two arms were open (arms were 24.8 cm long×7.7 cm wide). The maze was situated in a dimly lit room, such that the closed arms were darkened, whereas open arms were somewhat illuminated. All behavioural experiments were blinded. All experiments complied with the guidelines set by the Canadian Council on Animal Care and were approved by the Carleton University Animal Care Committee.

The subject of another assay is ERK1/2. The assay is described as follows: ERK1/2 phosphorylation immunoblot in HEK 293 cells. Particulars: 500 nM CRF; 0, 2, 5, 15 and 30 min. It counts as cell-based, human. On the procedure: Following transfection, HEK 293 cells were re-seeded into 6-well plates. […] Cells were lysed with lysis buffer (50 mM Tris, pH 8.0, 150 mM NaCl, and 0.1% Triton X-100) containing protease inhibitors (1 mM AEBSF, 10 μg/ml leupeptin, and 5 μg/ml aprotinin) for 20 min on a rocking platform at 4° C. Samples were collected into 1.5 mL Eppendorf tubes and centrifuged at 15,000 g for 15 min at 4° C. to pellet insoluble material. A […] protein assay was performed and 50 μg of protein was incubated overnight at room temperature in 3×SDS Loading Buffer containing 2-mercaptoethanol. Samples were separated by SDS-PAGE, transferred to a nitrocellulose membrane, and immunoblotted for ERK1/2 (rabbit anti-p44/42 mitogen-activated protein kinase (MAPK), 1:1000), phospho-ERK1/2 (rabbit anti-phospho-p44/42 MAPK, 1:1000), SAP97 (mouse anti-SAP97, 1:1000), and HA-CRFR1 expression (mouse anti-HA, 1:1000), followed by a horseradish peroxidase-conjugated secondary anti-rabbit antibody (1:10,000) or anti-mouse antibody (1:10,000) where appropriate. Proteins were detected using chemiluminescence with the enhanced chemiluminescence kit from GE Healthcare.
For orientation: In western blotting, separated proteins are transferred to a membrane and probed.

A further assay relates to mouse neuronal cultures. The assay is described as follows: Inositol phosphate formation in mouse cortical neuronal cultures. In kind it is cell-based. Conditions: CRF 500 nM pretreatment 30 min; 5-HT 50 μM.
Setting [5] is: first experiment, CRF 1.5 μg into medial prefrontal cortex.
The mark [6] stands for this setting: second experiment (M100907 study), CRF 1.5 μg mPFC, M100907 0.25 mg/kg i.p.

T1 sequence (P28223 whole entry): as the sequence (P28223 whole entry, the tested form may be a part) above

Consider “CRF: 41 amino acid peptide that activates the HPA axis; agonist of CRF receptors”, for which, in the assay with mice [1], the “latency to enter the center square of open field” value is “neither the CRF nor the DOI treatments alone influenced performance”. The “increase in cell surface expression of the 5-HT2AR” value with 5-HT2AR [2] was determined as 3.7±1.8 fold. Moreover, in the assay with 5-HT2AR [3], the “effect of pretreatment on 5-HT2AR-stimulated inositol phosphate responses” value was “did not increase”. For the same substance, the “inositol phosphate formation by CRF treatment itself” value with 5-HT2CR (CRF 500 nM 30 min, cells expressing 5-HT2CR alone, CRFR1 alone or both receptors) is “did not result in inositol phosphate formation”. The “increase in maximum efficacy (EMAX) for 5-HT2CR-stimulated inositol phosphate formation” value in the assay with 5-HT2CR (CRF pretreatment 500 nM for 30 min, cells expressing 5-HT2CR along with CRFR1) is recorded as 47±5.5%. Also, the “effect of pretreatment on 5-HT dose-response curve for inositol phosphate formation, 5-HT2CR” value in the assay with 5-HT2CR (HEK 293 cells expressing 5-HT2CR in the absence of CRFR1, CRF 500 nM 30 min) is on record as “had no effect”. For the same substance, in the assay with mice [4] (setting [5]), the “latency to enter an open arm of the plus maze” value is recorded as “had no effect”, the “number of entries into the closed arms of the plus maze” value was “did not vary” and the “number of entries onto the open arms of the plus maze” value is on record as “had no effect”. For the same substance, in the assay on mice [4] (setting [6]), the “frequency of open arm entries in the plus maze” value is on record as “neither CRF nor DOI alone affected the frequency of open arm entries”; the “latency to enter the open arms of the plus maze” value was “moderate, but statistically significant increase”; the “time spent in the closed arms of the plus maze” value is listed as “unaffected”. Further, the “entries to the closed arms of the plus maze” value in the assay with mice [4] (second experiment (M100907 study), CRF 1.5 μg mPFC, M100907 0.25 mg/kg i.p., relative to vehicle) is reported as “increased closed arm entries”. Moreover, in the assay on ERK1/2, the “ERK1/2 phosphorylation in cells transfected with HA-CRFR1 and scrambled shRNA” value is “more robust and sustained activation”; the “ERK1/2 phosphorylation in non-transfected HEK 293 cells” value is reported as “increase in detectable ERK1/2 phosphorylation at 5 min”. Also, the “effect of pretreatment on 5-HT-stimulated [3H]-myo-inositol conversion to inositol phosphate” value with mouse neuronal cultures was “significantly increase”.
